Measured values reported in publication PMC11428593 (Antibiotics, 2024).
≈ marks a conversion by molar mass, not a printed value. Entries after “also recorded” stand apart in the source; their conditions may differ. Read-outs that look alike come from different tables or passages of the source.

Assays:
[1] = system: S. aureus strain USA300LAC; assay: Growth curve-based assay of exponentially growing cells; assay type: cell-based, Staphylococcus aureus
Experimental: Considering the divergent antimicrobial effects of our new compounds, we proceeded to assess the impact of JC-01-072 and JC-01-074 on the growth of exponentially growing USA300LAC cells. We performed growth-curve-based assays of the USA300LAC cultures that were either left untreated or treated with 4–16 μg/mL of the alkyl pyridinol compound once they reached the mid-log phase (OD600nm~0.2–0.3).
Figure 2 Impact of alkyl pyridinol exposure on exponentially growing S. aureus. An overnight culture of the S. aureus strain USA300LAC was diluted into fresh TSB and grown to mid-exponential phase (OD600nm = 0.2–0.3) prior to treatment with 4–16 µg/mL JC-01-072 (A) and JC-01-074 (B). Optical densities were measured at 600 nm at 10 min intervals for 16–18 h (n = 3, ±S.D.).
The overnight USA300LAC cultures were diluted into fresh TSB media to an O.D.600nm = 0.001 and incubated at 37 °C under shaking conditions (300 rpm) until an O.D.600nm of 0.2–0.3 (early log phase) was reached. The cultures were subsequently transferred to a 96-well polystyrene plate (Alkali Scientific, Fort Lauderdale, FL, USA), following which DMSO (control) or alkyl pyridine compounds were added at the indicated final concentrations. The cells were then incubated at 37 °C for 16 h at 300 rpm, and the O.D.600nm measurements were taken every 10 min for 16 h in a Tecan Infinite 200 plate reader (Tecan, Morgan Hill, CA, USA).

[2] = system: MRSA USA300LAC; assay: Minimal bactericidal concentration (MBC); assay type: cell-based, Staphylococcus aureus; conditions: for MBC: Staphylococcus aureus, MRSA USA300LAC, concentration at which no CFUs were observed; for bactericidal or bacteriostatic effect: USA300LAC, in words
Experimental: In brief, 10 µL of each culture was serially diluted and plated onto prewarmed LB agar and incubated overnight at 37 °C under static conditions to observe the colony-forming units (CFUs). The concentration at which no CFUs were observed was recorded as the MBC.

[3] = system: USA300LAC cells; assay: Propidium iodide uptake assay (membrane damage); assay type: cell-based, Staphylococcus aureus
Description: The alkyl pyridinol derivates synthesized in this study are characterized by high lipophilicity. To determine whether and to what extent these compounds incorporate into and disrupt the phospholipid bilayer of the S. aureus cell envelope, we performed a propidium iodide (PI) uptake assay. Given the membrane-impermeable nature of PI, the fluorophore can be used to assess membrane disruption in cells by measuring its non-specific interaction with DNA, which leads to enhanced fluorescence. […] The extent of membrane damage caused by JC-01-074 occurred in a dose-dependent manner.
Figure 4 JC-01-074 causes significant membrane damage in S. aureus. Membrane damage was evaluated via propidium iodide (PI) staining. […] Treatment of USA300LAC with 2.5% DMSO, 4 µg/mL vancomycin, and 0.25% SDS were included as negative and positive controls, respectively. Cells were collected, washed, resuspended in PBS, and stained with 1 µM PI. PI fluorescence was measured (exc./em. wavelengths: 535/615 nm) and normalized to OD600nm. One-way ANOVA, Dunnett’s multiple-comparison test (* p < 0.05, **** p < 0.0001); (n = 3, ±S.D.).
The plasma membrane integrity was determined using the Propidium Iodide Uptake assay, as previously described. Briefly, the overnight cultures of USA300LAC were diluted into fresh TSB media, grown to an early log phase at 37 °C and 300 rpm, and treated with either DMSO, an alkyl pyridinol derivate, vancomycin, or SDS at the indicated concentrations for 1 h. Following two washing steps, the cells were then resuspended in phosphate-buffered saline (PBS), pH = 7.4, and subsequently stained with 1 µM propidium iodide (PI). The PI fluorescence intensity was determined at an excitation wavelength of 535 nm and an emission wavelength of 615 nm.

[4] = system: MRSA USA300LAC; assay: MIC by broth microdilution (CLSI); assay type: cell-based, Staphylococcus aureus; conditions: Staphylococcus aureus; MRSA USA300LAC; MHB, 37 °C, 16 h; read-out: MIC
Experimental: (§1) The MIC values of the alkyl pyridinol derivatives against the S. aureus strain ATCC 25923, MRSA strains ATCC 33591, ATCC BAA-44, and USA300LAC, as well as the P. aeruginosa strain ATCC 27853, were determined by following the CLSI guidelines for the broth microdilution antibiotic sensitivity testing protocol. In brief, the overnight cultures were diluted into Mueller Hinton Broth (MHB) to a final inoculum concentration of 5 × 10^5 CFU/mL (O.D600nm = 0.00001) and dispensed into a 96-well polystyrene plate (Alkali Scientific, Fort Lauderdale, FL, USA). Alkyl pyridine compounds were diluted into inoculated MHB to the indicated concentrations from stock solutions that would allow for DMSO concentrations below 5%, resulting in a total volume of 200 μL per well. The plates were subsequently incubated at 37 °C for 16 h at 300 rpm. The MIC values, which are defined as the lowest compound concentration that inhibited growth, were determined from three biological replicates.

[5] = system: S. aureus/MRSA strains; assay: MIC by broth microdilution, S. aureus/MRSA strains; assay type: cell-based, Staphylococcus aureus; conditions: S. aureus/MRSA strains tested, strain not singled out
Description: (§2) To assess the impact of the nitrogen position in our newly synthesized anaephene derivates, we analyzed their antimicrobial activities against various S. aureus strains, including ATCC 25,923 and the two methicillin-resistant S. aureus (MRSA) strains ATCC 33,591 and ATCC BAA-44. […] We determined the minimum inhibitory concentrations (MIC) of each of our compounds against the different bacterial strains by broth microdilution following the CLSI guidelines. As expected, all five compounds tested were completely ineffective against the Gram-negative P. aeruginosa strain ATCC 27,853 (Table 1).
as §1

[6] = system: S. aureus ATCC 25923; assay: MIC by broth microdilution (CLSI); assay type: cell-based; conditions: Staphylococcus aureus, ATCC25923, MHB, 37 °C, 16 h
Description: as §2, §1

[7] = system: MRSA ATCC 33591; assay: MIC by broth microdilution (CLSI); assay type: cell-based; conditions: Staphylococcus aureus, MHB, 37 °C, 16 h
Description: as §2, §1

[8] = system: MRSA ATCC BAA-44; assay: MIC by broth microdilution (CLSI); assay type: cell-based; conditions: Staphylococcus aureus, MHB, 37 °C, 16 h
Description: as §2, §1

[9] = system: P. aeruginosa ATCC 27853; assay: MIC by broth microdilution (CLSI); assay type: cell-based; conditions: Pseudomonas aeruginosa, ATCC27853, MHB, 37 °C, 16 h
Description: as §2, §1

[10] = Staphylococcus aureus, MRSA, read-out: MIC

SMILES | effect on growth of mid-log USA300LAC cells ([1]; 4–16 μg/mL, added at OD600nm ~0.2–0.3) | MBC [2] | bactericidal or bacteriostatic effect [2] | changes in PI intensity ([3]; up to 2× MIC, 1 h exposure) | MIC [4] | MIC [5] | MIC [5, 10] | MIC [6] | MIC [7] | MIC [8] | MIC [9] | delay of growth ([1]; 0.5× MIC, mid-log USA300LAC) | effect on growth at 1× MIC ([1]; 1× MIC, mid-log USA300LAC) | PI fluorescence compared to DMSO-treated control ([3]; 1 h treatment at MIC ([…] µg/mL))
CCCCCCCCCC#Cc1cncc(O)c1 [JC-01-072] | little to no effects | > 128 µg/mL | bacteriostatic; also recorded: no significant killing | minimal changes | 8 µg/mL (≈ 32.6 µM) | 4 to 8 µg/mL | 4 µg/mL (≈ 16.3 µM) | 4 µg/mL (≈ 16.3 µM) | 4 µg/mL (≈ 16.3 µM) | 4 µg/mL (≈ 16.3 µM) | > 128 µg/mL | – | – | –
CCCCCCCCCC#Cc1cccc(O)n1 [JC-01-074] | – | 16 µg/mL (≈ 65.2 µM) | bactericidal | – | 16 µg/mL (≈ 65.2 µM) | – | 16 µg/mL (≈ 65.2 µM) | 16 µg/mL (≈ 65.2 µM) | 16 µg/mL (≈ 65.2 µM) | 16 µg/mL (≈ 65.2 µM) | > 128 µg/mL | 6 to 8 h | total growth arrest | about five-fold higher PI fluorescence
